Measured values published in patent US12673014B2, “Inhibitors of glycosphingolipid synthesis and methods of use” (priority 2018, dated 2026).

What was measured:
Assay type in all cases: in vivo, mouse
[1] = test system: glucosylceramide synthase (UCGC); assay: q-RT-PCR mRNA mass in skin tissue; conditions: placebo vs D-PDMP fed ApoE-/- mice (data not shown)
[2] = test system: ApoE−/− mice fed a western diet; assay: Skin and hair phenotype (hair discoloration, hair loss, skin inflammation, wounds) in ApoE-/- mice fed western diet
Description: Male, 11-week-old apolipoprotein E-deficient (ApoE−/−) mice were purchased from Jackson Labs (Bar Harbor, Maine), and fed a western diet from the age of 12 to 20 weeks. Next, they were divided into the following diet/treatment groups.
Measurement of skin discoloration: An oval shape was drawn on the photographs taken from mice at the age of 36 weeks. This oval space covered the back area of mice from the neck to the tail ([…]). Using the free drawing pen and measure/analyze tool, the white area was measured for each mouse. The ratio of white area to the total area was then calculated, and the standard deviations for all the animals in each cage (N=5) was calculated and plotted.
Measurement of wounds and wound healing: For mouse skin wound analysis, the number of visible wounds in placebo-vs. BPD-treated mice (N=5 in each group), were counted manually. Then, averages of the wounds for each group were determined, as were the ratios of wounds in BPD-vs placebo-treated mice. Those ratios were then converted to percentages, expressed as “% wound healing.”

[3] = test system: skin glycosphingolipids (ceramide, monohexosylceramide, lactosylceramide); assay: Skin glycosphingolipids by LC-ESI/MS/MS in ApoE-/- mice fed western diet
Description: Sample preparation: Glycosphingolipid molecular species were extracted according to a modified Bligh and Dyer procedure^55 Briefly, about 50-mg of each tissue sample was homogenized with 10 volumes of HPLC water at room temperature, followed by addition of 30 volumes methanol solution containing ammonium formate and d18:1/C12:0 ceramide as an internal standard (Avanti Polar Lipids, Alabaster, Alabama). The mixture was vortexed (Vortex-Genie, Model G560, Scientific Industries, Bohemia, NY), and 40 volumes of chloroform added. The mixture was vortexed again and centrifuged (Eppendorf centrifuge #5424) at 1,000 g for 10 minutes. The chloroform (bottom layer) was separated and dried using a Savant™ SPD131 SpeedVac (Thermo Scientific, Pittsburgh, PA, USA). Dried extracts were resuspended in pure methanol and sealed and stored at −80° C. until analysis by LC-ESI/MS/MS, as described previously^30-40.

[4] = test system: LacCer synthase (GalT-V); assay: q-RT-PCR mRNA mass in skin tissue; conditions: placebo vs D-PDMP fed ApoE-/- mice (data not shown)
Protocol: Analysis of gene expression by quantitative Real-Time PCR: A ~50-mg piece of skin tissue was homogenized from each mice and total RNA was isolated using TRIsol reagent according to the manufacturer's instructions (Invitrogen, Camarillo, CA). Two microgram of RNA were reverse transcribed with SuperScript II using random primers. The primer sequence for GalT-V were as follows:
The primers were synthesized by Integrated DNA Technologies (Coralville, USA). Real time PCR were performed using SYBR Green PCR Master Mix PCR Master Mix (applied Biosystems, Foster City, CA, USA) in an Applied Biosystems Step one Real time PCR system as described previously^52. Data were normalized to GAPDH mRNA levels. Expression suite software (Applied Biosystems) was used to analyze the data.

[5] = test system: B1-4GalT-V; assay: GalT-V mass in skin tissue by ELISA, ApoE-/- mice fed western diet
Protocol: Measurement of B1-4GalT-V mass in skin tissue: Here, about 10-mg skin tissue was homogenized in RIPA buffer and centrifuged at 10,000 rpm. The mass of GalT-V was measured in the supernatant fraction using an ELISA assay. About 100-μg of each protein sample (in triplicate) was loaded in 96-well, medium-binding, clear flat bottom polystyrene ELISA plates (Immulux, Chantilly VA)-total volume adjusted to 100 μL with bicarbonate buffer (50 mM Na2CO3—NaHCO3). […] This antibody specifically recognizes human, mouse and rat tissue B4GalT-V. Moreover, this interaction can be inhibited by large volumes of the GalT-V peptide but not other proteins or scrambled peptide. After overnight incubation at 4 C, 200 μL of blocking buffer (1% bovine serum albumin/phosphate buffered saline) was added and incubation continued overnight. […] C., followed by incubation for 1-hr at 37 deg. C. with a horseradish peroxidase-conjugated IgG (Sigma) secondary antibody. Finally, 100-μL of TMB solution was added, and after 10 min incubation at 37° C., absorbance was measured at 450 nm.

[6] = western diet, BPD 1-10 mpk, D-PDMP 10 mpk, 20-36 weeks

Structure (SMILES): CCCCCCCCCC(=O)N[C@H](CN1CCOCC1)[C@H](O)c1ccccc1 [D-PDMP, D-threo-1-phenyl-2-decanoylamino-3-morpholino-1-propanol]
- mRNA mass of glucosylceramide synthase in skin [1]: No statistical difference
- % wound healing ([2]; 10 mpk D-PDMP daily oral gavage, age 20-36 weeks, western diet): 83%
- hair discoloration, hair loss, and skin inflammation ([2]; 10 mpk unbound D-PDMP with western diet, 20 to 36 weeks): also interfered with these pathologies
- lactosylceramide d18:1/22:0 and d18:1/24:1 in skin ([3]; 1 mpk BPD or 10 mpk D-PDMP): restored to normal
- levels of fatty acid molecular species of skin ceramide ([3]; 1 mpk BPD or 10 mpk D-PDMP, western diet lowered them ~3-fold): increased them to normal levels
- d18:1/24:1 monohexosylceramide in skin ([3]; 1 mpk BPD vs 10 mpk D-PDMP, western diet lowered it ~3-fold): but not 10 mpk D-PDMP, completely restored
- d18:1/26:1 ceramide in skin ([3]; 10 mpk D-PDMP): did not reverse the loss
- lactosylceramide d18:1/16:0 in skin ([3]; 36 weeks, western diet raised it 3-fold): modestly decreased
- 18:1/24:0 monohexosylceramide in skin ([3]; printed: 1 mpk D-PDMP as efficacious as 10 mpk BPD, western diet lowered it ~1.5-fold): reversed
- glucosylceramide level in skin [3, 6]: also increased
- total ceramide level in skin [3, 6]: also increased
- total lactosylceramide level in skin ([3]; western diet, BPD or D-PDMP): decreased
- mRNA mass of LacCer synthase (GalT-V) in skin [4]: No statistical difference
- mass of GalT-V in skin tissue [5]: showed a decrease
